pEC50: −log10 of the molar value.
Key:
HIV-IIIb = assay: Test A: Antiviral Assay in MT4 Cells; type: cell-based, HIV-1; details: Human immunodeficiency virus 1, IIIB, MT4, 120 h
Experimental: 1 mL Aliquots of MT4 cells were pre-infected for 3 hours at 37° C. with 25 μL of cell growth medium (mock-infected) or a fresh 1:250 dilution of an HIV-IIIb concentrated ABI stock (0.004 m.o.i.). Infected and uninfected cells were diluted in cell growth media and 35 μL (2000 cells) was added to each well of the assay plates.
Assay plates were then maintained in a humidified, 5% CO2 incubator at 37° C. After 5 days of incubation, 25 μL of 2× concentrated CellTiter-Glo™ Reagent (catalog #G7573, Promega Biosciences, Inc., Madison, WI) was added to each well of the assay plate. Cell lysis was carried out by incubating at room temperature for 10 minutes and then chemiluminescence was read using an Envision plate reader (PerkinElmer).

Human Liver Hepatocytes = assay: Test D: Metabolic Stability in Cultured Human Liver Hepatocytes; type: in vitro ADME; details: pooled cryopreserved human hepatocytes, […] radiolabelled compound, 1 million cells/mL, 0-6 hours; calculated from stability data
Experimental: Test D. Metabolic Stability in Cultured Human Liver Hepatocytes
The final hepatocyte concentration was 1 million cells/mL. The hepatocyte/compound reaction mixture was dissolved in InVitroGRO™ KHB buffer (catalog #Z99074, BioreclamationIVT, Inc., Baltimore, MD) at pH 7.4. The incubations were performed in duplicate. A cell free control and a positive control were included in the incubations. The incubations were carried out with gentle shaking in a 37° C. incubator under a humid atmosphere of 95% air/5% CO2 (v/v). Aliquots (100 mL) were removed after 0, 1, 3, and 6 hours and added to 200 mL quenching solution that comprised 0.1% (v/v) TFA in 5% water/95% acetonitrile (v/v). The samples were placed on a shaker for 10 min, followed by centrifugation at 3000 g for 30 min. The samples of the supernatant were analyzed on a Dionex HPLC/PerkinElmer Flow Scintillation Analyzer as described below.
The column was a Phenomenex Synergi fusion RP (150×4.6 mm, 4 mm) maintained at 32 degrees Celsius. Mobile Phase A consisted of 0.1% (v/v) TFA in 99% water/1% acetonitrile (v/v). Mobile Phase B consisted of 0.1% (v/v) TFA in 5% water/95% acetonitrile (v/v). […]
Metabolic stability was determined by measuring the change in relative abundance of metabolites and parent over time and calculating from it the rate of disappearance of the parent compound. […]

[1] = Atropisomer equilibrium and interconversion in solution; type: physicochemical; details: rotation along C—C bond between atropisomers

| pEC50 (HIV-IIIb) | Predicted Human Hepatic Clearance (Human Liver Hepatocytes) [mL/min/kg] | rotational energy barrier [1] | SMILES |
| --- | --- | --- | --- |
| 8.52 | – | – | Cn1nc(NS(C)(=O)=O)c2c(Cl)ccc(-c3ccc(C#CC(C)(C)O)nc3[C@H](Cc3cc(F)cc(F)c3)NC(=O)Cn3nc(C(F)(F)F)c4c3C(F)(F)[C@@H]3C[C@H]43)c21 [Compound B] |
| – | 0.17 | about 24 kcal/mol | CC(C)(C#Cc1ccc(-c2ccc(Cl)c3c(NS(C)(=O)=O)nn(CC(F)(F)F)c23)c([C@H](Cc2cc(F)cc(F)c2)NC(=O)Cn2nc(C(F)(F)F)c3c2C(F)(F)[C@@H]2C[C@H]32)n1)S(C)(=O)=O [Compound 1, N—((S)-1-(3-(4-Chloro-3-(methylsulfonamido)-1-(2,2,2-trifluoroethyl)-1H-indazol-7-yl)-6-(3-methyl-3-(methylsulfonyl)but-1-yn-1-yl)pyridin-2-yl)-2-(3,5-difluorophenyl)ethyl)-2-((3bS,4aR)-5,5-difluoro-3-(trifluoromethyl)-3b,4,4a,5-tetrahydro-1H-cyclopropa[3,4]cyclopenta[1,2-c]pyrazol-1-yl)acetamide] |

Source: patent US12636279B2, “Choline salt forms of an HIV capsid inhibitor” (Gilead Sciences, Inc., priority 2017, dated 2026)
